{"source": "the supplement of paper PMC11208160", "data": [{"assay": "recombinant barcode read abundance after kanamycin selection (control-corrected) (log10(CPM+1)); higher = more efficient recombination; sequences stand for … in AGTGCAGAGAAAATCGGCCAGTTTTCTCTGCCTGCAGTCCGCATGCCGT…ATTTATGCAGCGGACTGCCTTTCTCCCAAAGTGATAAACCGGACAGTATCATGGACCGGTTTTCCCGGTAATCCGTATTTGCAAGGTTGGTTTCACT; site = the 11-nt target", "procedure": "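Same pooled E. coli target screen (IS621 bridge recombinase, kanamycin selection, control-corrected CPM, mean of 2 biological replicates). Here the two core-binding nucleotides of the LTG and RTG of the bridge RNA target-binding loop are mutated. Target and donor CT cores are held constant, and the other 9 guide positions match the target. The target is read from the library oligo sequence. Molecule = full bridge RNA written as DNA: nt 1-80 from the library oligo, rest WT scaffold.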", "values": [{"sequence": "AAACACACTTGGGTTCTAACCTGTTGCCTTG [AAACACACTAG_LTGcore_CT_RTGcore_CA] (site AAACACACTAG) (LTG core: CT, RTG core: CA)", "recombinant barcode read abundance (log10)": 0.248}, {"sequence": "AAACACAGATGGGTTCTAACCTGTTGCCTTC [AAACACACTAG_LTGcore_GA_RTGcore_GA] (site AAACACACTAG) (LTG core: GA, RTG core: GA)", "recombinant barcode read abundance (log10)": 0.152}, {"sequence": "AAACACAGCTGGGTTCTAACCTGTTGCCTAG [AAACACACTAG_LTGcore_GC_RTGcore_CT] (site AAACACACTAG) (LTG core: GC, RTG core: CT)", "recombinant barcode read abundance (log10)": 0.0255}, {"sequence": "AAACACAGGTGGGTTCTAACCTGTTGCCTAG [AAACACACTAG_LTGcore_GG_RTGcore_CT] (site AAACACACTAG) (LTG core: GG, RTG core: CT)", "recombinant barcode read abundance (log10)": 0.463}, {"sequence": "AAACACAGGTGGGTTCTAACCTGTTGCCTCC [AAACACACTAG_LTGcore_GG_RTGcore_GG] (site AAACACACTAG) (LTG core: GG, RTG core: GG)", "recombinant barcode read abundance (log10)": 0.0137}, {"sequence": "AAACACATGTGGGTTCTAACCTGTTGCCTAG [AAACACACTAG_LTGcore_TG_RTGcore_CT] (site AAACACACTAG) (LTG core: TG, RTG core: CT)", "recombinant barcode read abundance (log10)": 0.247}, {"sequence": "AAACACATTTGGGTTCTAACCTGTTGCCTAA [AAACACACTAG_LTGcore_TT_RTGcore_TT] (site AAACACACTAG) (LTG core: TT, RTG core: TT)", "recombinant barcode read abundance (log10)": 0.889}, {"sequence": "AAACAGTAATGGGTTCTAACCTGTTGCCTTT [AAACAGTCTAG_LTGcore_AA_RTGcore_AA] (site AAACAGTCTAG) (LTG core: AA, RTG core: AA)", "recombinant barcode read abundance (log10)": 0.199}, {"sequence": "AAACAGTCCTGGGTTCTAACCTGTTGCCTGG [AAACAGTCTAG_LTGcore_CC_RTGcore_CC] (site AAACAGTCTAG) (LTG core: CC, RTG core: CC)", "recombinant barcode read abundance (log10)": 0.0864}, {"sequence": "AAACAGTCTTGGGTTCTAACCTGTTGCCTAC [AAACAGTCTAG_LTGcore_CT_RTGcore_GT] (site AAACAGTCTAG) (LTG core: CT, RTG core: GT)", "recombinant barcode read abundance (log10)": 0.553}, {"sequence": "AAACAGTCTTGGGTTCTAACCTGTTGCCTCG [AAACAGTCTAG_LTGcore_CT_RTGcore_CG] (site AAACAGTCTAG) (LTG core: CT, RTG core: CG)", "recombinant barcode read abundance (log10)": 1.3}, {"sequence": "AAACAGTCTTGGGTTCTAACCTGTTGCCTGT [AAACAGTCTAG_LTGcore_CT_RTGcore_AC] (site AAACAGTCTAG) (LTG core: CT, RTG core: AC)", "recombinant barcode read abundance (log10)": 1.66}, {"sequence": "AAACAGTCTTGGGTTCTAACCTGTTGCCTTT [AAACAGTCTAG_LTGcore_CT_RTGcore_AA] (site AAACAGTCTAG) (LTG core: CT, RTG core: AA)", "recombinant barcode read abundance (log10)": 1.32}, {"sequence": "AAACAGTGCTGGGTTCTAACCTGTTGCCTGC [AAACAGTCTAG_LTGcore_GC_RTGcore_GC] (site AAACAGTCTAG) (LTG core: GC, RTG core: GC)", "recombinant barcode read abundance (log10)": 0.0997}, {"sequence": "AAACAGTGGTGGGTTCTAACCTGTTGCCTCC [AAACAGTCTAG_LTGcore_GG_RTGcore_GG] (site AAACAGTCTAG) (LTG core: GG, RTG core: GG)", "recombinant barcode read abundance (log10)": 0.0531}, {"sequence": "AAACAGTGTTGGGTTCTAACCTGTTGCCTAC [AAACAGTCTAG_LTGcore_GT_RTGcore_GT] (site AAACAGTCTAG) (LTG core: GT, RTG core: GT)", "recombinant barcode read abundance (log10)": 0.0266}, {"sequence": "AAACAGTGTTGGGTTCTAACCTGTTGCCTAG [AAACAGTCTAG_LTGcore_GT_RTGcore_CT] (site AAACAGTCTAG) (LTG core: GT, RTG core: CT)", "recombinant barcode read abundance (log10)": 0.0452}, {"sequence": "AAACAGTTGTGGGTTCTAACCTGTTGCCTAG [AAACAGTCTAG_LTGcore_TG_RTGcore_CT] (site AAACAGTCTAG) (LTG core: TG, RTG core: CT)", "recombinant barcode read abundance (log10)": 0.029}, {"sequence": "AAACAGTTTTGGGTTCTAACCTGTTGCCTAA [AAACAGTCTAG_LTGcore_TT_RTGcore_TT] (site AAACAGTCTAG) (LTG core: TT, RTG core: TT)", "recombinant barcode read abundance (log10)": 0.182}, {"sequence": "AAACATGAGTGGGTTCTAACCTGTTGCCTAG [AAACATGCTAG_LTGcore_AG_RTGcore_CT] (site AAACATGCTAG) (LTG core: AG, RTG core: CT)", "recombinant barcode read abundance (log10)": 0.109}, {"sequence": "AAACATGAGTGGGTTCTAACCTGTTGCCTCT [AAACATGCTAG_LTGcore_AG_RTGcore_AG] (site AAACATGCTAG) (LTG core: AG, RTG core: AG)", "recombinant barcode read abundance (log10)": 0.191}, {"sequence": "AAACATGCGTGGGTTCTAACCTGTTGCCTCG [AAACATGCTAG_LTGcore_CG_RTGcore_CG] (site AAACATGCTAG) (LTG core: CG, RTG core: CG)", "recombinant barcode read abundance (log10)": 0.135}, {"sequence": "AAACATGCTTGGGTTCTAACCTGTTGCCTAT [AAACATGCTAG_LTGcore_CT_RTGcore_AT] (site AAACATGCTAG) (LTG core: CT, RTG core: AT)", "recombinant barcode read abundance (log10)": 0.681}, {"sequence": "AAACATGCTTGGGTTCTAACCTGTTGCCTCA [AAACATGCTAG_LTGcore_CT_RTGcore_TG] (site AAACATGCTAG) (LTG core: CT, RTG core: TG)", "recombinant barcode read abundance (log10)": 0.288}, {"sequence": "AAACATGCTTGGGTTCTAACCTGTTGCCTCG [AAACATGCTAG_LTGcore_CT_RTGcore_CG] (site AAACATGCTAG) (LTG core: CT, RTG core: CG)", "recombinant barcode read abundance (log10)": 1.02}, {"sequence": "AAACATGCTTGGGTTCTAACCTGTTGCCTCT [AAACATGCTAG_LTGcore_CT_RTGcore_AG] (site AAACATGCTAG) (LTG core: CT, RTG core: AG)", "recombinant barcode read abundance (log10)": 0.435}, {"sequence": "AAACATGCTTGGGTTCTAACCTGTTGCCTGT [AAACATGCTAG_LTGcore_CT_RTGcore_AC] (site AAACATGCTAG) (LTG core: CT, RTG core: AC)", "recombinant barcode read abundance (log10)": 1.55}, {"sequence": "AAACATGCTTGGGTTCTAACCTGTTGCCTTC [AAACATGCTAG_LTGcore_CT_RTGcore_GA] (site AAACATGCTAG) (LTG core: CT, RTG core: GA)", "recombinant barcode read abundance (log10)": 0.572}, {"sequence": "AAACATGCTTGGGTTCTAACCTGTTGCCTTG [AAACATGCTAG_LTGcore_CT_RTGcore_CA] (site AAACATGCTAG) (LTG core: CT, RTG core: CA)", "recombinant barcode read abundance (log10)": 1.17}, {"sequence": "AAACATGGATGGGTTCTAACCTGTTGCCTTC [AAACATGCTAG_LTGcore_GA_RTGcore_GA] (site AAACATGCTAG) (LTG core: GA, RTG core: GA)", "recombinant barcode read abundance (log10)": 0.0557}, {"sequence": "AAACATGGTTGGGTTCTAACCTGTTGCCTAG [AAACATGCTAG_LTGcore_GT_RTGcore_CT] (site AAACATGCTAG) (LTG core: GT, RTG core: CT)", "recombinant barcode read abundance (log10)": 0.108}, {"sequence": "AAACATGTTTGGGTTCTAACCTGTTGCCTAG [AAACATGCTAG_LTGcore_TT_RTGcore_CT] (site AAACATGCTAG) (LTG core: TT, RTG core: CT)", "recombinant barcode read abundance (log10)": 0.0409}, {"sequence": "ACGGGACAATGGGTTCTAACCTGTTGCAGAG [ACGGGACCTCT_LTGcore_AA_RTGcore_CT] (site ACGGGACCTCT) (LTG core: AA, RTG core: CT)", "recombinant barcode read abundance (log10)": 0.0324}, {"sequence": "ACGGGACAATGGGTTCTAACCTGTTGCAGTT [ACGGGACCTCT_LTGcore_AA_RTGcore_AA] (site ACGGGACCTCT) (LTG core: AA, RTG core: AA)", "recombinant barcode read abundance (log10)": 0.298}, {"sequence": "ACGGGACAGTGGGTTCTAACCTGTTGCAGCT [ACGGGACCTCT_LTGcore_AG_RTGcore_AG] (site ACGGGACCTCT) (LTG core: AG, RTG core: AG)", "recombinant barcode read abundance (log10)": 0.237}, {"sequence": "ACGGGACCCTGGGTTCTAACCTGTTGCAGGG [ACGGGACCTCT_LTGcore_CC_RTGcore_CC] (site ACGGGACCTCT) (LTG core: CC, RTG core: CC)", "recombinant barcode read abundance (log10)": 1.21}, {"sequence": "ACGGGACCTTGGGTTCTAACCTGTTGCAGAC [ACGGGACCTCT_LTGcore_CT_RTGcore_GT] (site ACGGGACCTCT) (LTG core: CT, RTG core: GT)", "recombinant barcode read abundance (log10)": 0.9}, {"sequence": "ACGGGACCTTGGGTTCTAACCTGTTGCAGAT [ACGGGACCTCT_LTGcore_CT_RTGcore_AT] (site ACGGGACCTCT) (LTG core: CT, RTG core: AT)", "recombinant barcode read abundance (log10)": 1.4}, {"sequence": "ACGGGACCTTGGGTTCTAACCTGTTGCAGGA [ACGGGACCTCT_LTGcore_CT_RTGcore_TC] (site ACGGGACCTCT) (LTG core: CT, RTG core: TC)", "recombinant barcode read abundance (log10)": 0.528}, {"sequence": "ACGGGACGATGGGTTCTAACCTGTTGCAGAG [ACGGGACCTCT_LTGcore_GA_RTGcore_CT] (site ACGGGACCTCT) (LTG core: GA, RTG core: CT)", "recombinant barcode read abundance (log10)": 0.81}, {"sequence": "ACGGGACGCTGGGTTCTAACCTGTTGCAGAG [ACGGGACCTCT_LTGcore_GC_RTGcore_CT] (site ACGGGACCTCT) (LTG core: GC, RTG core: CT)", "recombinant barcode read abundance (log10)": 0.257}, {"sequence": "ACGGGACGGTGGGTTCTAACCTGTTGCAGAG [ACGGGACCTCT_LTGcore_GG_RTGcore_CT] (site ACGGGACCTCT) (LTG core: GG, RTG core: CT)", "recombinant barcode read abundance (log10)": 0.14}, {"sequence": "ACGGGACTGTGGGTTCTAACCTGTTGCAGAG [ACGGGACCTCT_LTGcore_TG_RTGcore_CT] (site ACGGGACCTCT) (LTG core: TG, RTG core: CT)", "recombinant barcode read abundance (log10)": 0.397}, {"sequence": "ACGGGACTGTGGGTTCTAACCTGTTGCAGCA [ACGGGACCTCT_LTGcore_TG_RTGcore_TG] (site ACGGGACCTCT) (LTG core: TG, RTG core: TG)", "recombinant barcode read abundance (log10)": 0.179}]}]}
